From ChEMBL document CHEMBL2311483, “HCV NS5A replication complex inhibitors. Part 3: discovery of potent analogs with distinct core topologies” (Bioorg Med Chem Lett, 2013)
≈ marks a conversion by molar mass, not a printed value.

What was measured:
[1] = tested on: Bovine viral diarrhea virus 1; test: Antiviral activity against Bovine viral diarrhea virus infected in human HuH7 cells assessed as inhibition of viral replication by luciferase reporter gene assay; assay type: functional, organism-based; details: Bovine viral diarrhea virus isolates and strains, Huh-7
Hepatitis C virus = test: Antiviral activity against HCV1b harboring NS5B infected in human HuH7 cells assessed as inhibition of viral replication after 72 hrs by FRET assay; assay type: functional, organism-based, Hepacivirus hominis; details: genotype 1b, Huh-7, 72 h
[2] = Cytotoxicity against human HuH7 cells after 72 hrs by Alamar blue assay; assay type: cell-based, Huh-7
[3] = Solubility of the compound in phosphate buffer at pH 6.5; assay type: physicochemical

O=C(Nc1ccc(/C=C/c2ccc(NC(=O)[C@@H]3CCCN3C(=O)Cc3ccccc3)cc2)cc1)[C@@H]1CCCN1C(=O)Cc1ccccc1
EC50 [1]: > 10 µM | EC50 (Hepatitis C virus): 0.09 nM | CC50 at 72 h [2]: > 10 µM

O=C(Nc1ccc(-c2ccc(NC(=O)[C@@H]3CCCN3C(=O)Cc3ccccc3)cc2)cc1)[C@@H]1CCCN1C(=O)Cc1ccccc1
EC50 (Hepatitis C virus): 205 nM

O=C(Nc1ccc(CN2CCc3cc(NC(=O)[C@@H]4CCCN4C(=O)Cc4ccccc4)ccc3C2)cc1)[C@@H]1CCCN1C(=O)Cc1ccccc1
EC50 [1]: > 10 µM | EC50 (Hepatitis C virus): 159 nM | CC50 at 72 h [2]: > 10 µM

O=C(Nc1cccc(CN2CCc3ccc(NC(=O)[C@@H]4CCCN4C(=O)Cc4ccccc4)cc3C2)c1)[C@@H]1CCCN1C(=O)Cc1ccccc1
EC50 [1]: > 10 µM | EC50 (Hepatitis C virus): 3890 nM | CC50 at 72 h [2]: > 10 µM

O=C(Nc1ccc(-c2nnc(-c3ccc(NC(=O)[C@@H]4CCCN4C(=O)Cc4ccccc4)cc3)o2)cc1)[C@@H]1CCCN1C(=O)Cc1ccccc1
EC50 [1]: > 10 µM | EC50 (Hepatitis C virus): 149 nM | CC50 at 72 h [2]: > 10 µM

O=C(Nc1ccc(-c2cnc(-c3ccc(NC(=O)[C@@H]4CCCN4C(=O)Cc4ccccc4)cc3)o2)cc1)[C@@H]1CCCN1C(=O)Cc1ccccc1
EC50 [1]: > 10 µM | EC50 (Hepatitis C virus): 2.38 nM | CC50 at 72 h [2]: > 10 µM

O=C(Nc1ccc(-c2coc(-c3ccc(NC(=O)[C@@H]4CCCN4C(=O)Cc4ccccc4)cc3)n2)cc1)[C@@H]1CCCN1C(=O)Cc1ccccc1
EC50 [1]: > 10 µM | EC50 (Hepatitis C virus): 1.32 nM | CC50 at 72 h [2]: > 10 µM

O=C(Nc1ccc(-c2ccc(-c3ccc(NC(=O)[C@@H]4CCCN4C(=O)Cc4ccccc4)cc3)s2)cc1)[C@@H]1CCCN1C(=O)Cc1ccccc1
EC50 [1]: > 10 µM | EC50 (Hepatitis C virus): 14.7 nM | CC50 at 72 h [2]: > 10 µM

O=C(Nc1ccc(-c2c[nH]c(-c3ccc(NC(=O)[C@@H]4CCCN4C(=O)Cc4ccccc4)cc3)n2)cc1)[C@@H]1CCCN1C(=O)Cc1ccccc1
EC50 [1]: > 10 µM | EC50 (Hepatitis C virus): 67.2 nM | CC50 at 72 h [2]: > 10 µM

O=C(Nc1ccc(-c2cc(-c3ccc(NC(=O)[C@@H]4CCCN4C(=O)Cc4ccccc4)cc3)[nH]n2)cc1)[C@@H]1CCCN1C(=O)Cc1ccccc1
EC50 [1]: > 10 µM | EC50 (Hepatitis C virus): 0.71 nM | CC50 at 72 h [2]: > 10 µM

Cn1nc(-c2ccc(NC(=O)[C@@H]3CCCN3C(=O)Cc3ccccc3)cc2)cc1-c1ccc(NC(=O)[C@@H]2CCCN2C(=O)Cc2ccccc2)cc1
EC50 [1]: > 10 µM | EC50 (Hepatitis C virus): 181 nM | CC50 at 72 h [2]: > 10 µM

O=C(Nc1ccc(/C=C\c2ccc(NC(=O)[C@@H]3CCCN3C(=O)Cc3ccccc3)cc2)cc1)[C@@H]1CCCN1C(=O)Cc1ccccc1
EC50 [1]: > 10 µM | EC50 (Hepatitis C virus): 12.4 nM | CC50 at 72 h [2]: > 10 µM

O=C(Nc1ccc([C@H]2C[C@@H]2c2ccc(NC(=O)[C@@H]3CCCN3C(=O)Cc3ccccc3)cc2)cc1)[C@@H]1CCCN1C(=O)Cc1ccccc1
solubility [3]: 3 µg/mL (≈ 4.58 µM) | EC50 [1]: > 10 µM | EC50 (Hepatitis C virus): 5.66 nM | CC50 at 72 h [2]: > 10 µM

O=C(Nc1ccc([C@H]2C[C@H]2c2ccc(NC(=O)[C@@H]3CCCN3C(=O)Cc3ccccc3)cc2)cc1)[C@@H]1CCCN1C(=O)Cc1ccccc1
EC50 [1]: > 10 µM | EC50 (Hepatitis C virus): 796 nM | CC50 at 72 h [2]: > 10 µM

O=C(Nc1ccc(NC(=O)[C@@H]2CCCN2C(=O)Cc2ccccc2)cc1)c1ccc(NC(=O)[C@@H]2CCCN2C(=O)Cc2ccccc2)cc1
EC50 [1]: > 10 µM | EC50 (Hepatitis C virus): 11 nM | CC50 at 72 h [2]: > 10 µM

CN(C(=O)c1ccc(NC(=O)[C@@H]2CCCN2C(=O)Cc2ccccc2)cc1)c1ccc(NC(=O)[C@@H]2CCCN2C(=O)Cc2ccccc2)cc1
EC50 [1]: > 10 µM | EC50 (Hepatitis C virus): 6250 nM | CC50 at 72 h [2]: > 10 µM

O=C(Nc1ccc(N2CCc3cc(NC(=O)[C@@H]4CCCN4C(=O)Cc4ccccc4)ccc3C2)nc1)[C@@H]1CCCN1C(=O)Cc1ccccc1
EC50 [1]: > 10 µM | EC50 (Hepatitis C virus): 1.74 nM | CC50 at 72 h [2]: > 10 µM

O=C(Nc1ccc(-c2nc3ccc(NC(=O)[C@@H]4CCCN4C(=O)Cc4ccccc4)cc3[nH]2)cc1)[C@@H]1CCCN1C(=O)Cc1ccccc1
EC50 [1]: > 10 µM | EC50 (Hepatitis C virus): 1050 nM | CC50 at 72 h [2]: > 10 µM

O=C(Nc1ccc(CCc2ccc(NC(=O)[C@@H]3CCCN3C(=O)Cc3ccccc3)cc2)cc1)[C@@H]1CCCN1C(=O)Cc1ccccc1
EC50 [1]: > 10 µM | EC50 (Hepatitis C virus): 6.01 nM | CC50 at 72 h [2]: > 10 µM

O=C(Nc1ccc(COc2ccc(NC(=O)[C@@H]3CCCN3C(=O)Cc3ccccc3)cc2)cc1)[C@@H]1CCCN1C(=O)Cc1ccccc1
EC50 [1]: > 10 µM | EC50 (Hepatitis C virus): 97.8 nM | CC50 at 72 h [2]: > 10 µM

O=C(Nc1ccc(C#Cc2ccc(NC(=O)[C@@H]3CCCN3C(=O)Cc3ccccc3)cc2)cc1)[C@@H]1CCCN1C(=O)Cc1ccccc1
EC50 [1]: > 10 µM | EC50 (Hepatitis C virus): 6.24 nM | CC50 at 72 h [2]: > 10 µM

O=C(Nc1ccc(-c2nc[nH]c2-c2ccc(NC(=O)[C@@H]3CCCN3C(=O)Cc3ccccc3)cc2)cc1)[C@@H]1CCCN1C(=O)Cc1ccccc1
EC50 [1]: > 10 µM | EC50 (Hepatitis C virus): 20.9 nM | CC50 at 72 h [2]: > 10 µM

O=C(Nc1ccc(-c2nn[nH]c2-c2ccc(NC(=O)[C@@H]3CCCN3C(=O)Cc3ccccc3)cc2)cc1)[C@@H]1CCCN1C(=O)Cc1ccccc1
EC50 [1]: > 10 µM | EC50 (Hepatitis C virus): 8.18 nM | CC50 at 72 h [2]: > 10 µM

O=C(Nc1ccc(-c2c[nH]nc2-c2ccc(NC(=O)[C@@H]3CCCN3C(=O)Cc3ccccc3)cc2)cc1)[C@@H]1CCCN1C(=O)Cc1ccccc1
EC50 [1]: > 10 µM | EC50 (Hepatitis C virus): 4.57 nM | CC50 at 72 h [2]: > 10 µM

O=C(Nc1ccc(Cc2ccc(NC(=O)[C@@H]3CCCN3C(=O)Cc3ccccc3)cc2)cc1)[C@@H]1CCCN1C(=O)Cc1ccccc1
EC50 [1]: > 10 µM | EC50 (Hepatitis C virus): 1700 nM | CC50 at 72 h [2]: > 10 µM

O=C(Nc1ccc(Oc2ccc(NC(=O)[C@@H]3CCCN3C(=O)Cc3ccccc3)cc2)cc1)[C@@H]1CCCN1C(=O)Cc1ccccc1
EC50 [1]: > 10 µM | EC50 (Hepatitis C virus): 1990 nM | CC50 at 72 h [2]: > 10 µM

O=C(c1ccc(NC(=O)[C@@H]2CCCN2C(=O)Cc2ccccc2)cc1)c1ccc(NC(=O)[C@@H]2CCCN2C(=O)Cc2ccccc2)cc1
EC50 [1]: > 10 µM | EC50 (Hepatitis C virus): 3950 nM | CC50 at 72 h [2]: > 10 µM

CC(C)(c1ccc(NC(=O)[C@@H]2CCCN2C(=O)Cc2ccccc2)cc1)c1ccc(NC(=O)[C@@H]2CCCN2C(=O)Cc2ccccc2)cc1
EC50 [1]: > 10 µM | EC50 (Hepatitis C virus): 638 nM | CC50 at 72 h [2]: > 10 µM

O=C(Nc1ccc(CCCc2ccc(NC(=O)[C@@H]3CCCN3C(=O)Cc3ccccc3)cc2)cc1)[C@@H]1CCCN1C(=O)Cc1ccccc1
EC50 [1]: > 10 µM | EC50 (Hepatitis C virus): 36.1 nM | CC50 at 72 h [2]: > 10 µM

CN1Cc2cc(NC(=O)[C@@H]3CCCN3C(=O)Cc3ccccc3)ccc2CC1c1ccc(NC(=O)[C@@H]2CCCN2C(=O)Cc2ccccc2)cc1 (mixture of isomers)
solubility [3]: 135 µg/mL | EC50 [1]: > 10 µM | EC50 (Hepatitis C virus): 13.9 nM | CC50 at 72 h [2]: > 10 µM
